Measured values published in US20080045463A1, “Methods For Lowering Hif-1 Mediated Gene Expression” (priority 2004, published 2008).
Entries after “also recorded” stand apart in the source; their conditions may differ. Where a SMILES comes first, the peptide text is derived from it. The star is where a group is joined. Cbz = O=C(OCc1ccccc1)*

What was measured:
HPH = assay: 2-Oxoglutarate: HPH binding assay; design: species or system human; conditions: competitor 10 mM
Description: Gel was washed four times with the indicated buffer. Analysis of HPH binding was measured by scintillation counting.

[1] = test system: labile intracellular iron pool; assay: Calcein fluorescence assay for cellular free iron; format: cell-based, human; conditions: calcein loaded U251 cells
Description: The ability of 2-oxoacids to chelate the labile intracellular iron pool was measured using the calcein fluorescence assay as previously described. The iron chelators desferrioxamine and bipyridyl were used as positive controls.

HIF-1α [2] = assay: HIF-1α decay after washout of inducer; format: cell-based, human
Description: (§1) Human U87, U251, U251-HRE (20) and U373 glioma cells were cultured in Eagle's MEM medium (Mediatech). DU145 human prostate cancer cells and 022 human head and neck cancer cells were cultured in RPMI 1640 medium (Sigma). 22B Human head and neck cancer cells were cultured in high glucose DMEM (Gibco) containing 2 mM glutamine. C6 ODD-GFP rat glioma cells were cultured in high glucose DMEM with 1.5 mg/ml G418. All culture media were supplemented with 10% fetal bovine serum and 1% (v/v) penicillin/streptomycin. Rat C6 glioma cells were cultured in high glucose DMEM. For cell hypoxia treatment, the culture dishes were sealed in a modular incubator chamber, flushed with gas containing 1% O2, 5% CO2 and 94% N2 for 5 minutes, and incubated in this environment at 37° C. for indicated times.
(§2) Protein extraction, western blot analysis, and immunocytochemistry were performed as previously described. Mouse monoclonal anti-HIF-1α antibodies were 610958 (BD Biosciences), and NB100-123 (Novus). Mouse monoclonal anti-GFP antibody was 1814460 (Roche). Mouse monoclonal anti-β-actin antibody was ab6276-100 (Abcam). Dimethyloxalylglycine was D1070 (Frontier Scientific). All other chemicals were from Sigma. Antibodies recognizing HPH homologues were from Novus biologicals and the antisera recognizing […] of HIF-1α was kindly provided by R. Freeman.
To test this U251 cells was exposed to glucose-free Krebs buffer to either hypoxia (1% O2) or 2 mM pyruvate for four hours. Nuclear HIF-1α protein accumulation was induced by both treatments (FIG. 6A). […] HIF-1α immunoreactivity disappeared rapidly upon reoxygenation (return to 21% O2) of hypoxic cells as would be expected with the resumption of oxygen-dependent HIF-1α hydroxylation and proteolysis. […] To directly determine if the HPH activity in glioma cells was reversibly inactivated by pyruvate and oxaloacetate the ^35S-pVHL pulldown assay to measure HPH activity in extracts from cells treated for four hours with the 2-oxoacids was used. To capture the endogenous state of HPH activity, the cell extracts were first assayed without supplementation with exogenous reductants, ascorbate, or iron. […] The minimal HPH activity of extracts from pyruvate or oxaloacetate treated cells could also be restored by supplementation of the extracts with ascorbate or with exogenous ferrous iron (FeSO4) during the assay (FIG. 6D).

HIF-1α [3] = assay: HIF-1α accumulation in 22B head and neck cancer cells; format: cell-based, human; conditions: 22B cells, 100 μM each, last 30 minutes after 24 hours accumulation
Description: as §1, §2

HIF-1α [4] = assay: Nuclear HIF-1α accumulation in human cancer cell lines (western blot); format: cell-based; conditions: for inhibition of HIF-1α accumulation, L- vs D-isomers and dimer: U87, four hours, glucose-free Krebs, 1 mM pyruvate or oxaloacetate, 250 μM (FIG. 3C); for HIF-1α accumulation induced by oxidant: U251 cells; for HIF-1α accumulation induced by oxidant / HIF-1α accumulation induced by metabolite: four hours; for HIF-1α accumulation induced by metabolite: substituted for glucose in Krebs buffer, normoxia; for dose inducing HIF-1α (doses as low as): culture times longer than 8 h; for threshold dose for inducing HIF-1α accumulation: four hours period of cell culture
Description: as §1, with “DU145 human prostate cancer cells and 022 human head and neck cancer cells were cultured in RPMI 1640 medium (Sigma).” left out
Protein extraction, western blot analysis, and immunocytochemistry were performed as previously described. […] Mouse monoclonal anti-β-actin antibody was ab6276-100 (Abcam). Dimethyloxalylglycine was D1070 (Frontier Scientific). All other chemicals were from Sigma.

HIF-1α [5] = assay: HIF-1α hydroxyproline detection in U251 whole cell extracts; format: cell-based, human; conditions: U251, four hours, antibody to hydroxylated ODD region
Description: as §2
Some reactive oxygen species can also induce HIF-1α. […] Next, attention was focused on HIF-1α proline hydroxylation as a target for 2-oxoacids.

HIF-1 = HIF-1 luciferase reporter assay in U251-HRE cells; format: cell-based, human; conditions: 8 h
ODD-GFP = assay: Live cell assay for oxygen-dependent degradation, ODD-GFP transfected C6 glioma cells; format: cell-based, rat; conditions: C6 cells in Krebs buffer, 24 hours
Description: as §1
Next a live cell assay for oxygen-dependent HIF-1α degradation using C6 rat glioma cells that had been stably transfected with a vector encoding the HIF-1 cc ODD region fused to GFP (ODD-GFP) was performed. The ODD-GFP protein is hydroxylated and degraded in an oxygen dependent manner similar to HIF-1α. As with HIF-1α, a basal, as well as, hypoxia-inducible accumulation of ODD-GFP has been reported.

HPH1, HPH2, and HPH3 = assay: HPH prolyl hydroxylation assay with in vitro translated HPHs (35S-pVHL pulldown); format: biochemical, human; conditions: in the absence of ascorbate or other reducing agents
Description: Human HPH-1,2,3 and VHL pcDNA3.1/V5-HIS vectors (kindly provided by R. Bruick) were used for TNT Coupled Reticulocyte Lysate in vitro transcription/translation (Promega). Cytoplasmic extract for HPH activity was made by lysing cell pellets in assay buffer (20 mM Tris, pH 7.5, 5 mM KCl, 1.5 mM MgCl2, and 1 mM DTT) at 4° C. using a homogenizer, centrifuging at 20,000 g for 15 minutes and collecting supernatant for the assay. HPH enzymatic reactions were performed as previously described using either IVT products or cell extracts. This assay, chosen for its specificity for the HPH reaction, was linear over 30 minutes. For each reaction, either 7.5 μL of IVT products or 100 μg of cell extract protein were used as source of the enzyme. Activity was measured by either quantitative scintillation counting or by autoradiography after gel electrophoresis on a 10-20% Tris Glycine gradient gel (Invitrogen).
To determine whether HPH activity was directly modulated by pyruvate or oxaloacetate, Pro564 hydroxylation in a biotinylated HIF-1α ODD peptide by in vitro translated HPH1, HPH2, and HPH3 was examined. The ability of streptavidin beads to pull down ^35S-pVHL bound to the biotinylated peptide was used as evidence of HIF-1α ODD peptide hydroxylation. This is the most specific and sensitive assay for HPH activity. […] Such assays can also give high background values in cell extracts.

VEGF and GLUT3 = assay: RT-PCR of HIF-1 regulated genes in U87 cells; format: cell-based, human; conditions: U87, 5× the level normally found in MEM, 2 d
Description: Total RNA was isolated using the RNeasy kit (Qiagen). For RT-PCR, 1 μg of total RNA was used with the […] One-Step System (Invitrogen). VEGF, GLUT3, and β-Actin primers were described previously. For quantitative PCR analysis, the iQ SY BR Green Supermix and MyiQ Single-Color

O=C(O)CCC(=O)C(=O)O [2-OG, 2-oxoglutarate]
displacement of iron dependent binding of 35S-HPHs to immobilized 2-OG (HPH): readily displaced

CC(=O)N(O)CCCCCNC(=O)CCC(=O)N(O)CCCCCNC(=O)CCC(=O)N(O)CCCCCN [DFO, desferrioxamine]
intracellular calcein fluorescence [1]: increase in fluorescence

[Fe+3] [Fe(III)]
HIF-1α decay following induction with pyruvate or oxaloacetate, iron in wash (HIF-1α [2]; 100 μM each): not Fe(III)
decay of NO-induced HIF-1α with iron in wash (HIF-1α [2]; 100 μM each): not Fe(III)
decay of accumulated HIF-1α after washing out DFO, iron added (HIF-1α [2]; 100 μM each): not Fe(III)
accumulated (pyruvate-enhanced) HIF-1α after supplementation (HIF-1α [3]): Fe(II)>Fe(III)
accumulated (pyruvate-enhanced) HIF-1α after supplementation (HIF-1α [3]; listed as ferric iron): diminished to a greater extent by ferrous iron than by ferric iron

N[C@@H](CCC(=O)N[C@@H](CS)C(=O)NCC(=O)O)C(=O)O [GSH, glutathione]
HIF-1α decay with agent added to the wash (HIF-1α [2]; U87 after pyruvate or oxaloacetate, 100 μM ascorbate, 5 mM GSH or MEM amino acid mixture): HIF-1α decay was rapidly resumed
HIF-1α accumulation by hypoxia or the iron chelator DFO (HIF-1α [4]; FIG. 3C, 1% O2 or 150 μM DFO): not by hypoxia or DFO
inhibition of HIF-1α accumulation, L- vs D-isomers and dimer (HIF-1α [4]): selectively inhibited
NO induced HIF-1α accumulation (HIF-1α [4]; U251, MEM, DETA-NO 300 μM, ascorbate 100 μM, Fe(II) 100 μM, GSH 5 mM): complete inhibition

OO [H2O2]
HIF-1α accumulation induced by oxidant (HIF-1α [4]): induce HIF-1α accumulation

CC(C)C[C@@H](C=O)NC(=O)[C@H](CC(C)C)NC(=O)[C@H](CC(C)C)NC(=O)OCc1ccccc1 [MG132] (Cbz-Leu-Leu-Leu-aldehyde)
hydroxyproline (Pro564) in induced HIF-1α (HIF-1α [5]): hydroxyproline was detected

NCCN(CCN)[N+]([O-])=NO [NO]
HIF-1α decay after washing of NO treated cells (HIF-1α [2]; extensive washing with MEM): sluggish HIF-1α decay
HIF-1α accumulation induced by oxidant (HIF-1α [4]): induce HIF-1α accumulation

O=C(O)CCC(=O)O [Succinate]
induction of HIF-1 regulated reporter gene (HRE-luciferase) (HIF-1): did not find a significant effect
stimulation of basal ODD-GFP accumulation (ODD-GFP): not by succinate; also recorded: did not find a significant effect
displacement of iron dependent binding of 35S-HPHs to immobilized 2-OG (HPH): not by succinate; also recorded: did not find a significant effect
HIF-1α accumulation induced by metabolite (HIF-1α [4]): unable to induce HIF-1α accumulation
HIF-1α accumulation induced by metabolite (HIF-1α [4]; listed as succinate): did not find a significant effect

CC(=O)CC(=O)O [acetoacetate]
HIF-1α accumulation induced by metabolite (HIF-1α [4]): unable to induce HIF-1α accumulation

C[C@H](N)C(=O)O [alanine]
HIF-1α accumulation induced by metabolite (HIF-1α [4]): unable to induce HIF-1α accumulation

c1ccc(-c2ccccn2)nc1 [bipyridyl]
intracellular calcein fluorescence [1]: increase in fluorescence

N[C@@H](CSSC[C@H](N)C(=O)O)C(=O)O [cystine]
inhibition of HIF-1α accumulation, L- vs D-isomers and dimer (HIF-1α [4]): effective

CCOC(=O)C(C)=O [ethyl esters of pyruvate, ethyl-pyruvate]
HIF-1α accumulation induced by metabolite (HIF-1α [4]): effective

O=C(O)C(=O)CF [fluoropyruvate]
HIF-1α accumulation induced by metabolite (HIF-1α [4]): not able to induce HIF-1α accumulation

O=C(O)/C=C/C(=O)O [fumarate]
induction of HIF-1 regulated reporter gene (HRE-luciferase) (HIF-1): did not find a significant effect
stimulation of basal ODD-GFP accumulation (ODD-GFP): did not find a significant effect
displacement of iron dependent binding of 35S-HPHs to immobilized 2-OG (HPH): did not find a significant effect
HIF-1α accumulation induced by metabolite (HIF-1α [4]): unable to induce HIF-1α accumulation; also recorded: did not find a significant effect

NC(=O)CC[C@H](N)C(=O)O [glutamine]
basal HIF-1α accumulation (HIF-1α [4]; U251 cells switched to Krebs buffer for 4 hours, 10 mM glutamine): no basal HIF-1α accumulation

N[C@@H](Cc1c[nH]cn1)C(=O)O [histidine]
stimulation of HIF-1α ODD hydroxylation (HPH1, HPH2, and HPH3): dose dependently stimulate HIF-1α ODD hydroxylation
basal expression of the HIF-1 regulated genes VEGF and GLUT3 (VEGF and GLUT3): lowered the basal expression

O=C(O)C(=O)C(=O)O [ketomalonate]
HIF-1α accumulation induced by metabolite (HIF-1α [4]): did not induce HIF-1α accumulation

O=C(O)CC(O)C(=O)O (stereo not shown) [malate]
HIF-1α accumulation induced by metabolite (HIF-1α [4]): unable to induce HIF-1α accumulation

O=C(O)CC(=O)C(=O)O [oxaloacetate]
dose inducing HIF-1α (doses as low as) (HIF-1α [4]): 100 µM
threshold dose for inducing HIF-1α accumulation (HIF-1α [4]): about 300 μM

CC(=O)C=O [pyruvaldehyde]
HIF-1α accumulation induced by metabolite (HIF-1α [4]): unable to induce HIF-1α accumulation

CC(=O)C(=O)O [pyruvate]
dose inducing HIF-1α (doses as low as) (HIF-1α [4]): 100 µM
threshold dose for inducing HIF-1α accumulation (HIF-1α [4]): about 300 μM

CC[C@H](C)C(=O)C(=O)O [α-keto-β-methylvalerate]
HIF-1α accumulation induced by metabolite (HIF-1α [4]): active in some but not all cell lines

O=C(O)CCCC(=O)C(=O)O [α-ketoadipate]
HIF-1α accumulation induced by metabolite (HIF-1α [4]): did not induce HIF-1α accumulation

CCC(=O)C(=O)O [α-ketobutyrate]
HIF-1α accumulation induced by metabolite (HIF-1α [4]): did not induce HIF-1α accumulation

CC(C)CC(=O)C(=O)O [α-ketoisocaproate]
HIF-1α accumulation induced by metabolite (HIF-1α [4]): active in some but not all cell lines

CC(C)C(=O)C(=O)O [α-ketoisovalerate]
HIF-1α accumulation induced by metabolite (HIF-1α [4]): minor activity

CC(O)CC(=O)O (stereo not drawn) [β-hydroxybutyrate]
HIF-1α accumulation induced by metabolite (HIF-1α [4]): unable to induce HIF-1α accumulation
